Measurements reported in ChEMBL document CHEMBL3045810, “Synthesis and evaluation of 4-(substituted)-acetylamino-3-mercapto-5-(4-substituted) phenyl-1,2,4-triazole derivatives as antimicrobial agents” (2012).
The source made the active and inactive calls. No cut-off for these calls is given here.

What was measured:
Escherichia coli [1] = test: Antibacterial activity against Escherichia coli ATCC 8793 at 70 ug/ml after 24 hr by paper disk diffusion method; type: functional; settings: ATCC 8793, 24 h, read-out: DIZ
Fusarium oxysporum [2] = test: Fungicidal activity against Fusarium oxysporum MTCC 2087; type: functional, organism-based
Aspergillus niger [3] = test: Fungicidal activity against Aspergillus niger MTCC 3323; type: functional, organism-based
Candida albicans [4] = test: Fungicidal activity against Candida albicans MTCC 227; type: functional, organism-based
Bacillus subtilis [5] = test: Bactericidal against Bacillus subtilis ATCC 6633; type: functional, organism-based
Staphylococcus aureus [6] = test: Antibacterial activity against Staphylococcus aureus ATCC 25923 at 50 ug/ml after 24 hr by paper disk diffusion method; type: functional; settings: ATCC 25923, 24 h, read-out: DIZ
Staphylococcus aureus [7] = test: Antibacterial activity against Staphylococcus aureus ATCC 25923 at 70 ug/ml after 24 hr by paper disk diffusion method; type: functional; settings: ATCC 25923, 24 h, read-out: DIZ
Pseudomonas aeruginosa [8] = test: Antibacterial activity against Pseudomonas aeruginosa ATCC 27853 at 30 ug/ml after 24 hr by paper disk diffusion method; type: functional; settings: ATCC 27853, 24 h, read-out: DIZ
Pseudomonas aeruginosa [9] = test: Antibacterial activity against Pseudomonas aeruginosa ATCC 27853 at 50 ug/ml after 24 hr by paper disk diffusion method; type: functional; settings: ATCC 27853, 24 h, read-out: DIZ
Pseudomonas aeruginosa [10] = test: Antibacterial activity against Pseudomonas aeruginosa ATCC 27853 at 70 ug/ml after 24 hr by paper disk diffusion method; type: functional; settings: ATCC 27853, 24 h, read-out: DIZ
Escherichia coli [11] = test: Antibacterial activity against Escherichia coli ATCC 8793 at 30 ug/ml after 24 hr by paper disk diffusion method; type: functional; settings: ATCC 8793, 24 h, read-out: DIZ
Escherichia coli [12] = test: Antibacterial activity against Escherichia coli ATCC 8793 at 50 ug/ml after 24 hr by paper disk diffusion method; type: functional; settings: ATCC 8793, 24 h, read-out: DIZ
Staphylococcus aureus [13] = test: Bactericidal activity against Staphylococcus aureus ATCC 25923; type: functional, organism-based
Pseudomonas aeruginosa [14] = test: Bactericidal activity against Pseudomonas aeruginosa ATCC 27853; type: functional, organism-based
Escherichia coli [15] = test: Bactericidal activity against Escherichia coli ATCC 8793; type: functional, organism-based
Fusarium oxysporum [16] = test: Antifungal activity against Fusarium oxysporum MTCC 2087 at 30 ug/ml by paper disk diffusion method; type: functional; settings: read-out: DIZ
Fusarium oxysporum [17] = test: Antifungal activity against Fusarium oxysporum MTCC 2087 at 50 ug/ml by paper disk diffusion method; type: functional; settings: read-out: DIZ
Fusarium oxysporum [18] = test: Antifungal activity against Fusarium oxysporum MTCC 2087 at 70 ug/ml by paper disk diffusion method; type: functional; settings: read-out: DIZ
Aspergillus niger [19] = test: Antifungal activity against Aspergillus niger MTCC 3323 at 30 ug/ml by paper disk diffusion method; type: functional; settings: read-out: DIZ
Aspergillus niger [20] = test: Antifungal activity against Aspergillus niger MTCC 3323 at 50 ug/ml by paper disk diffusion method; type: functional; settings: read-out: DIZ
Aspergillus niger [21] = test: Antifungal activity against Aspergillus niger MTCC 3323 at 70 ug/ml by paper disk diffusion method; type: functional; settings: read-out: DIZ
Candida albicans [22] = test: Antifungal activity against Candida albicans MTCC 227 at 30 ug/ml by paper disk diffusion method; type: functional; settings: read-out: DIZ
Candida albicans [23] = test: Antifungal activity against Candida albicans MTCC 227 at 50 ug/ml by paper disk diffusion method; type: functional; settings: read-out: DIZ
Candida albicans [24] = test: Antifungal activity against Candida albicans MTCC 227 at 70 ug/ml by paper disk diffusion method; type: functional; settings: read-out: DIZ
Bacillus subtilis [25] = test: Antibacterial activity against Bacillus subtilis ATCC 6633 at 30 ug/ml after 24 hr by paper disk diffusion method; type: functional; settings: ATCC 6633, 24 h, read-out: DIZ
Bacillus subtilis [26] = test: Antibacterial activity against Bacillus subtilis ATCC 6633 at 50 ug/ml after 24 hr by paper disk diffusion method; type: functional; settings: ATCC 6633, 24 h, read-out: DIZ
Bacillus subtilis [27] = test: Antibacterial activity against Bacillus subtilis ATCC 6633 at 70 ug/ml after 24 hr by paper disk diffusion method; type: functional; settings: ATCC 6633, 24 h, read-out: DIZ
Staphylococcus aureus [28] = test: Antibacterial activity against Staphylococcus aureus ATCC 25923 at 30 ug/ml after 24 hr by paper disk diffusion method; type: functional; settings: ATCC 25923, 24 h, read-out: DIZ

`CCCCCN(CCCCC)CC(=O)Nn1c(S)nnc1-c1ccc(OC)cc1` was tested, and the zone of inhibition at 70 µg/mL (Escherichia coli [1]) was 10.2 mm, the Activity (Fusarium oxysporum [2]) was “inactive” and the Activity (Aspergillus niger [3]) was “inactive”. The Activity (Candida albicans [4]) was “inactive”, the Activity (Bacillus subtilis [5]) was “Active” and the zone of inhibition at 50 µg/mL (Staphylococcus aureus [6]) was 8.13 mm. The zone of inhibition at 70 µg/mL (Staphylococcus aureus [7]) was 9.16 mm, the zone of inhibition at 30 µg/mL (Pseudomonas aeruginosa [8]) was 6.23 mm and the zone of inhibition at 50 µg/mL (Pseudomonas aeruginosa [9]) was 7.13 mm. The zone of inhibition at 70 µg/mL (Pseudomonas aeruginosa [10]) was 8.1 mm, the zone of inhibition at 30 µg/mL (Escherichia coli [11]) was 8.97 mm and the zone of inhibition at 50 µg/mL (Escherichia coli [12]) was 9.26 mm. The Activity (Staphylococcus aureus [13]) was “Active”, the Activity (Pseudomonas aeruginosa [14]) was “Active” and the Activity (Escherichia coli [15]) was “Active”. It also gave a zone of inhibition at 30 µg/mL (Fusarium oxysporum [16]) of 6.17 mm, a zone of inhibition at 50 µg/mL (Fusarium oxysporum [17]) of 7.21 mm and a zone of inhibition at 70 µg/mL (Fusarium oxysporum [18]) of 8.2 mm. It also gave a zone of inhibition at 30 µg/mL (Aspergillus niger [19]) of 11.2 mm, a zone of inhibition at 50 µg/mL (Aspergillus niger [20]) of 12.2 mm and a zone of inhibition at 70 µg/mL (Aspergillus niger [21]) of 13 mm. It also gave a zone of inhibition at 30 µg/mL (Candida albicans [22]) of 10.1 mm, a zone of inhibition at 50 µg/mL (Candida albicans [23]) of 11.3 mm and a zone of inhibition at 70 µg/mL (Candida albicans [24]) of 12.2 mm. For the same molecule, the zone of inhibition at 30 µg/mL (Bacillus subtilis [25]) was 6.13 mm, the zone of inhibition at 50 µg/mL (Bacillus subtilis [26]) was 7.26 mm and the zone of inhibition at 70 µg/mL (Bacillus subtilis [27]) was 8.03 mm. It also gave a zone of inhibition at 30 µg/mL (Staphylococcus aureus [28]) of 7.2 mm.
